Source: US8680129B2, “Compounds, composition, methods, targets for cancer therapy” (priority 2008, dated 2014)
Values joined by “and” are separate entries in the source; they are usually repeats but may differ in a detail not shown here. Identical values can stand only once. Like-named read-outs stand apart in the source and are kept apart here.

Tests used:
HT1080 cells [1] = assay: mPMS dose-response with WST-1c and apigenin, cell viability; format: cell-based, human; details: mPMS variable with 1 mM WST-1c and 10, 30 or 100 μM apigenin
Protocol: (§1) Method: A & B: HT1080 (FIG. 16A) and UM-SCC6 (FIG. 16B) cells were treated with variable concentrations of mPMS as indicated in combination with 1 mM WST-1c and 10, 30 or 100 μM apigenin for 4 hours and, then, changed to normal growth medium for another 24 hours. Cell viabilities were measured by CCK8 Kit. 1 mM WST-1 only, 0.12 mM mPMS only and 10% WST-1r were used as parallel control. AP 0: Untreated Control, AP 10: 10 μM Apigenin, AP 30: 30 μM Apigenin, AP 100: 100 μM Apigenin.

UM-SCC6 cells [2] = assay: as above; format: cell-based, human; details: for IC50: read-out: mPMS1050
Protocol: as §1

[3] = test system: non cancer human keratinocyte (HEKa); assay: Differential cellular responses to mPMS, cell viability; format: cell-based
Protocol: (§2) Non cancer human keratinocyte (HEKa), SK-Mel-5 human malonoma cell line (SK5), human head and neck cancer cell Cal27 line (Cal27) and UM-SCC6 line (SCC6) cells and human soft tissue sarcoma cell line HT1080 (HT1080) were treated with 30, 40 or 50 μM mPMS for 4 hours and then cultured in normal growth medium for another 24 hours. Cell viabilities were measured with CCK8 kit.

[4] = test system: Cal27, UM-SCC6 and HT1080 cells; assay: as above; format: cell-based, human; details: Cal27, UM-SCC6 and HT1080 cells 'respectively', only two values printed; read-out: 1050 of mPMS
Protocol: as §2

[5] = test system: HEKa, SK-Mel-5, Cal27, UM-SCC6 and HT1080 cells; assay: Differential cellular responses to mPMS, cell viability, all lines; format: cell-based, human; details: 30, 40 or 50 μM mPMS 4 hours, then 24 hours
Protocol: as §2

Cal27 cells = assay: WST-3 with or without mPMS plus apigenin, cell viability; format: cell-based, human; details: 30 μM mPMS added to 0.1 mM WST-3 and 30 μM apigenin
Protocol: (§3) Method: UM-SCC6, HT1080, Cal127, SK-Mel-5, and HEKa cells were treated with 0.1 mM WST-3 plus 30 μM mPMS, or WST-3 only, or untreated control in combination with 10 or 30 μM apigenin for 4 hours and, then, changed to normal growth medium and remained culture in this medium for another 24 hours. After the 24 hours culture, cell viabilities were measured with CCK8 Kit. Data were normalized to % of untreated control cells.

UM-SCC6 cells [6] = assay: as above; format: cell-based, human; details: 30 μM mPMS added to 0.1 mM WST-3 and 30 μM apigenin
Protocol: as §3

HT1080 cells [7] = assay: DNA transfection, IKK inhibitor III and WST-1 combination, cell viability by CCK8; format: cell-based, human
Protocol: Methods: HT1080 cells were cultured in 96 well plates and transfected with one of the pUC19, pcDNA3, IKK1-KA, IKK1-KA+PUC19, or pcDNA3+pUC19 DNA vectors for 24 hours followed with treatment of IKK Inhibitor IIII at 3-30 μM for another 24 hours and, then, treated with 10% WST-1 for 4 hours and cultured overnight before detection. The same treatments of cells were measured at 24, 48 and 96 hours after WST-1 treatment. Cell viability was measured by Cell Count Kit 8 (CCK8).

[8] = test system: ROS generation in HT1080 cells; assay: ROS labeling with CM-H2-DCFDA (imaging); format: cell-based, human; details: cells transfected with pUC19, no exposure to WST-1
Protocol: Methods: HT1080 cells were cultured in cover slices and transfected with pUC19 and treated with IKK inhibitor III in sequential. Following these treatment, the cells, thus, treated, were either labeled with CM-H2-DCFDA, a fluorescence dye that can labeling ROS in cells, and, then, treated with WST-1 for 30 minutes (FIG. 23A) or treated with WST-1 for 2 hours and then labeled with CM-H2-DCFDA (FIG. 23-B). The results were recorded by a digital camera with Spotlight software. Manuel exposure levels were used to maintain the same exposure level for comparison.

[9] = test system: SK-Mel-5 human melanoma cells; assay: WST-1r then IKK inhibitor III, cell viability by CCK8; format: cell-based; details: WST-1r 1% and 3% 4 hours, then BMS345541 3 and 10 μM 24 hours; combination 3% WST-1r and 10 μM BMS345541
Protocol: (§4) Method: SK-Mel-5 and T294 human melanoma cells were treated with WST-1r at 1% and 3% final concentration respectively as indicated for 4 hours, then, removed WST-1r by changing to normal growth medium and added IKK inhibitor III for another 24 hours. After 24 hours treatment with 3 μM and 10 μM IKK inhibitor III respectively as indicated, cells were changed to grow in normal growth medium for 48 hours before measuring cell viability by CCK8 Kit.

[10] = test system: T294 human melanoma cells; assay: as above; format: cell-based; details: WST-1r 1% and 3% 4 hours, then BMS345541 3 and 10 μM 24 hours; combination 3% WST-1r and 10 μM BMS345541
Protocol: as §4

[11] = test system: ROS generation in UM-SCC6 cells; assay: Dose response of ROS generation (CM-H2-DCFDA fluorescence); format: cell-based, human
Protocol: Method: UM-SCC6 cells were labeled with 10 μM CM-H2-DCFDA for 15 minutes and then treated with WST-1r or CCK8 at the indicated amounts in combination with variable doses of apigenin (A) or IKK Inhibitor III (B) for 4 hours. Fluorescence at Ex485/Em535 were measured for detecting ROS generation that labeled by the CM-H2-DCFDA.

HT1080 cells [12] = assay: siRNA or Puc19 transfection, IKK inhibitor III and WST-1r triple combination, CCK8; format: cell-based, human; details: IKK inhibitor 24 hours, then WST-1r 4 hour
Protocol: Method: HT1080 cells were transfected with siRNA#3, or the siRNA targeting MAGI3, and TMEM182 that were derived from Puc19 DNA sequence and the siRNAs that targeting the corresponding genes that are the targets of the Puc19 derived siRNAs for 24 hours, then, treated with IKK inhibitor III for 24 hours followed by adding WST-1r for another 4 hour. After the 4 hours WST-1r treatment, cells in culture were changed to normal growth medium for 24 hours. Cell viability were monitored by CCK8 Kit every 24 hours. Data were normalized to % of untreated control cells. AllStar siRNA was used as negative siRNA trasnfection control. Puc19 DNA vector transfection was used as positive control.
Data label: Untreated control: 0 Ctrl, WST-1r only: 10 Ctrl, pUC19 transfected cells: 0 p9, pUC19 transfected and WST-1r treated: 10 p9, AllStar negative contrl siRNA transfected: 0 AllStar, AllStar transfected and WST-1r treated: 10 AllStar, siRNA#3 transfected: 0 siRNA#3, siRNA#3 transfcted and WST-1r treated: 10 siRNA#3, siRNAMAGI3 transfected: 0 MAGI3, siRNA MAGI3 transfcted and WST-1r treated: 10 MAGI3, siRNATMEM182 transfected: 0 TMEM182, siRNATMEM182 transfcted and WST-1r treated: 10 TMEM182,

Compound	cell death (HT1080 cells [1])	IC50 (UM-SCC6 cells [2]; combination of apigenin 100 μM and mPMS+WST-1)	cell death (UM-SCC6 cells [2]; mPMS variable with 1 mM WST-1c and 10, 30 or 100 μM apigenin)	IC50 (UM-SCC6 cells [2]; untreated control cells (no apigenin))	sensitivity to mPMS treatment ([3]; compared with the cancer cell lines)	IC50 ([3]; mPMS 4 hours, then 24 hours)	IC50 [4]	cell death and sensitivity to mPMS [5]	effect of adding mPMS on cell death (Cal27 cells)	effect of adding mPMS on cell death (UM-SCC6 cells [6])	cell death by morphology examination (HT1080 cells [7]; 30 μM, 24 hours after the WST-1 treatment)	induction of cell death (HT1080 cells [7]; cells transfected with any of the DNA vectors, IKK inhibitor III 3-30 μM, 24, 48 and 96 hour after WST-1 treatment, vs non transfected control)	labeled ROS [8]	cell death [9]	cell death [10]	ROS levels ([11]; 5 μM IKK Inhibitor, alone and with WST-1r)	ROS levels ([11]; 10 μM IKK Inhibitor III, alone and with WST-1r)	ROS levels ([11]; IKK Inhibitor III combined with CCK8)	cell death (HT1080 cells [12])
1-methoxy-5-methyl-phenazinium methyl sulfate [mPMS]	dose dependent cell death	30 µM	dose dependent cell death	80 µM	least sensitivity to mPMS treatment	50 µM	20 µM and 30 µM	mPMS dose dependent cell death and differential sensitivities to mPMS treatment	further synergize the cell death	further synergize the cell death	–	–	–	–	–	–	–	–	–
Cc1ccc2nc(NCCN)c3ncc(C)n3c2c1 [IKK inhibitor III]	–	–	–	–	–	–	–	–	–	–	majority of the 30 μM IIKK inhibitor III treated cells died	significant IKK inhibitor III dose dependent induction of cell death	IKK inhibitor III dose dependent labeled ROS	dose dependent increase of cell deaths	dose dependent increase of cell deaths	increased ROS levels	decreased it	no combined effect with CCK8 on ROS levels	dose dependent cell death
